Converted amounts (≈) assume the structure as drawn. Where a SMILES comes first, the peptide text is derived from it. [ ]: non-standard residue; d: D form.
Key:
MDRAB 12036 = type: cell-based, Acinetobacter baumannii
Outline: (§1)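 Peptides were serially diluted twofold in Mueller-Hinton medium and combined 1:1 with bacterial suspensions prepared at 2×10^6 CFU. Readout was the minimal inhibitory concentration, i.e. the lowest concentration with no growth.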

MDRPA 2003 = type: cell-based, Pseudomonas aeruginosa
Outline: as §1

MDRPA 2002 = type: cell-based, Pseudomonas aeruginosa
Outline: as §1

MDREC 1229 = assay: MIC of antibiotic during combined treatment with antimicrobial peptide; type: cell-based, Escherichia coli
Outline: (§2)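 Strains in MH medium at 2×10^6 CFU/ml were mixed with peptide diluted stepwise (2:1) from its MIC, then antibiotic dilutions in MH medium were added to give the antibiotic MIC. The reversed set-up, peptide titrated against fixed antibiotic, gave the peptide MIC.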

MRSA 3114 = type: cell-based, Staphylococcus aureus; settings: 3114
Outline: as §1

MRSA 3126 = type: cell-based, Staphylococcus aureus; settings: 3126
Outline: as §1

MDREC 1238 = type: cell-based, Escherichia coli
Outline: as §1

MDRAB 12035 = assay: MIC of antibiotic during combined treatment with antimicrobial peptide; type: cell-based, Acinetobacter baumannii
Outline: as §2

S. typhimurium = assay: microbe, parasite or virus in culture; type: cell-based, Salmonella typhimurium
Outline: as §1

MDRST 8007 = assay: Minimal inhibitory concentration (MIC), single agent; type: cell-based, Salmonella typhimurium; settings: agent alone
Outline: as §1

[1] = peptide treatment concentration 1 μg/ml
[2] = peptide treatment concentration 2 μg/ml
[3] = peptide treatment concentration 4 μg/ml
[4] = peptide treatment concentration 6 μg/ml
[5] = peptide treatment concentration 8 μg/ml
[6] = peptide treatment concentration 16 μg/ml
[7] = peptide treatment concentration 32 μg/ml
[8] = peptide treatment concentration 64 μg/ml

SMILES: CC[C@H](C)[C@H](NC(=O)[C@H](CCCCN)NC(=O)[C@H](Cc1c[nH]c2ccccc12)NC(=O)[C@@H](N)CCCNC(=N)N)C(=O)N[C@@H](Cc1ccccc1)C(=O)N[C@@H](CCCCN)C(=O)N[C@@H](CCCCN)C(=O)N[C@H](C(=O)N1CCC[C@H]1C(=O)N[C@@H](CCCCN)C(=O)N[C@@H](Cc1ccccc1)C(=O)N[C@@H](CC(C)C)C(=O)N[C@@H](Cc1c[nH]cn1)C(=O)N[C@@H](CCC(=O)O)C(=O)N[C@@H](C)C(=O)N[C@@H](CCCCN)C(=O)N[C@@H](CCCCN)C(=O)N[C@@H](Cc1ccccc1)C(N)=O)[C@@H](C)CC [PapMA-11, RWK IFK KIP KFL HEA KKF-NH2] (H-RWKIFKKIPKFLHEAKKF-NH2; N-terminus assumed)
- Minimal inhibitory concentration MIC (MDRAB 12036): 64 µg/mL (≈ 27.3 µM)
- Minimal inhibitory concentration MIC (MDRPA 2003): >128 µg/mL
- Minimal inhibitory concentration MIC (MDRPA 2002): 128 µg/mL (≈ 54.6 µM)
- Antibiotic MIC, Erythromycin (MDREC 1229; [1]): 128 µg/mL
- Antibiotic MIC, Linezolid (MDREC 1229; [1]): >128 µg/mL
- Antibiotic MIC, Vancomycin (MDREC 1229; [1]): >128 µg/mL
- Antibiotic MIC, Erythromycin (MDREC 1229; [2]): 64 µg/mL
- Antibiotic MIC, Linezolid (MDREC 1229; [2]): >128 µg/mL
- Antibiotic MIC, Vancomycin (MDREC 1229; [2]): >128 µg/mL
- Antibiotic MIC, Erythromycin (MDREC 1229; [3]): 16 µg/mL
- Antibiotic MIC, Linezolid (MDREC 1229; [3]): 128 µg/mL
- Antibiotic MIC, Vancomycin (MDREC 1229; [3]): >128 µg/mL
- Antibiotic MIC, Erythromycin (MDREC 1229; [4]): 8 µg/mL
- Antibiotic MIC, Linezolid (MDREC 1229; [4]): 128 µg/mL
- Antibiotic MIC, Vancomycin (MDREC 1229; [4]): >128 µg/mL
- Antibiotic MIC, Erythromycin (MDREC 1229; [5]): 4 µg/mL
- Antibiotic MIC, Linezolid (MDREC 1229; [5]): 32 µg/mL
- Antibiotic MIC, Vancomycin (MDREC 1229; [5]): 128 µg/mL
- Antibiotic MIC, Erythromycin (MDREC 1229; [6]): 1 µg/mL
- Antibiotic MIC, Linezolid (MDREC 1229; [6]): 16 µg/mL
- Antibiotic MIC, Vancomycin (MDREC 1229; [6]): 16 µg/mL
- Antibiotic MIC, Erythromycin (MDREC 1229; [7]): 0.5 µg/mL
- Antibiotic MIC, Linezolid (MDREC 1229; [7]): 8 µg/mL
- Antibiotic MIC, Vancomycin (MDREC 1229; [7]): 8 µg/mL
- Antibiotic MIC, Erythromycin (MDREC 1229; [8]): 0 µg/mL
- Antibiotic MIC, Linezolid (MDREC 1229; [8]): 0 µg/mL
- Antibiotic MIC, Vancomycin (MDREC 1229; [8]): 0 µg/mL
- Minimal inhibitory concentration MIC (MRSA 3114): >128 µg/mL
- Minimal inhibitory concentration MIC (MRSA 3126): >128 µg/mL
- Minimal inhibitory concentration MIC (MDREC 1238): 64 µg/mL (≈ 27.3 µM)
- Erythromycin MIC during combined treatment with peptide (MDRAB 12035; [1]): 32 µg/mL
- Linezolid MIC during combined treatment with peptide (MDRAB 12035; [1]): >128 µg/mL
- Vancomycin MIC during combined treatment with peptide (MDRAB 12035; [1]): >128 µg/mL
- Erythromycin MIC during combined treatment with peptide (MDRAB 12035; [2]): 16 µg/mL
- Linezolid MIC during combined treatment with peptide (MDRAB 12035; [2]): 128 µg/mL
- Vancomycin MIC during combined treatment with peptide (MDRAB 12035; [2]): 128 µg/mL
- Erythromycin MIC during combined treatment with peptide (MDRAB 12035; [3]): 8 µg/mL
- Linezolid MIC during combined treatment with peptide (MDRAB 12035; [3]): 64 µg/mL
- Vancomycin MIC during combined treatment with peptide (MDRAB 12035; [3]): 64 µg/mL
- Erythromycin MIC during combined treatment with peptide (MDRAB 12035; [4]): 2 µg/mL
- Linezolid MIC during combined treatment with peptide (MDRAB 12035; [4]): 32 µg/mL
- Vancomycin MIC during combined treatment with peptide (MDRAB 12035; [4]): 32 µg/mL
- Erythromycin MIC during combined treatment with peptide (MDRAB 12035; [5]): 1 µg/mL
- Linezolid MIC during combined treatment with peptide (MDRAB 12035; [5]): 16 µg/mL
- Vancomycin MIC during combined treatment with peptide (MDRAB 12035; [5]): 32 µg/mL
- Erythromycin MIC during combined treatment with peptide (MDRAB 12035; [6]): 0.5 µg/mL
- Linezolid MIC during combined treatment with peptide (MDRAB 12035; [6]): 8 µg/mL
- Vancomycin MIC during combined treatment with peptide (MDRAB 12035; [6]): 16 µg/mL
- Erythromycin MIC during combined treatment with peptide (MDRAB 12035; [7]): 0.125 µg/mL
- Linezolid MIC during combined treatment with peptide (MDRAB 12035; [7]): 2 µg/mL
- Vancomycin MIC during combined treatment with peptide (MDRAB 12035; [7]): 4 µg/mL
- Erythromycin MIC during combined treatment with peptide (MDRAB 12035; [8]): 0 µg/mL
- Linezolid MIC during combined treatment with peptide (MDRAB 12035; [8]): 0 µg/mL
- Vancomycin MIC during combined treatment with peptide (MDRAB 12035; [8]): 0 µg/mL
- Minimal inhibitory concentration MIC (S. typhimurium): 64 µg/mL (≈ 27.3 µM)
- Minimal inhibitory concentration MIC (MDRST 8007): 64 µg/mL (≈ 27.3 µM)

SMILES: CC[C@H](C)[C@H](NC(=O)[C@H](CCCCN)NC(=O)[C@H](Cc1c[nH]c2ccccc12)NC(=O)[C@@H](N)CCCNC(=N)N)C(=O)N[C@@H](Cc1ccccc1)C(=O)N[C@@H](CCCCN)C(=O)N[C@@H](CCCCN)C(=O)N[C@H](C(=O)N[C@H](CCCCN)C(=O)N[C@@H](CCCCN)C(=O)N[C@@H](CC(C)C)C(=O)N[C@@H](CC(C)C)C(=O)N[C@@H](Cc1c[nH]cn1)C(=O)N[C@@H](CO)C(=O)N[C@@H](C)C(=O)N[C@@H](CCCCN)C(=O)N[C@@H](CCCCN)C(=O)N[C@@H](Cc1c[nH]c2ccccc12)C(N)=O)[C@@H](C)CC [PapMA-16, RWK IFK KIk KLL HSA KKW-NH2] (H-RWKIFKKI[dK]KLLHSAKKW-NH2; N-terminus assumed)
- Minimal inhibitory concentration MIC (MDRAB 12036): 32 µg/mL (≈ 13.7 µM)
- Minimal inhibitory concentration MIC (MDRPA 2003): 64 µg/mL (≈ 27.4 µM)
- Minimal inhibitory concentration MIC (MDRPA 2002): 64 µg/mL (≈ 27.4 µM)
- Antibiotic MIC, Erythromycin (MDREC 1229; [1]): >128 µg/mL
- Antibiotic MIC, Linezolid (MDREC 1229; [1]): >128 µg/mL
- Antibiotic MIC, Vancomycin (MDREC 1229; [1]): >128 µg/mL
- Antibiotic MIC, Erythromycin (MDREC 1229; [2]): 64 µg/mL
- Antibiotic MIC, Linezolid (MDREC 1229; [2]): >128 µg/mL
- Antibiotic MIC, Vancomycin (MDREC 1229; [2]): >128 µg/mL
- Antibiotic MIC, Erythromycin (MDREC 1229; [3]): 32 µg/mL
- Antibiotic MIC, Linezolid (MDREC 1229; [3]): 64 µg/mL
- Antibiotic MIC, Vancomycin (MDREC 1229; [3]): 128 µg/mL
- Antibiotic MIC, Erythromycin (MDREC 1229; [4]): 4 µg/mL
- Antibiotic MIC, Linezolid (MDREC 1229; [4]): 32 µg/mL
- Antibiotic MIC, Vancomycin (MDREC 1229; [4]): 32 µg/mL
- Antibiotic MIC, Erythromycin (MDREC 1229; [5]): 2 µg/mL
- Antibiotic MIC, Linezolid (MDREC 1229; [5]): 16 µg/mL
- Antibiotic MIC, Vancomycin (MDREC 1229; [5]): 16 µg/mL
- Antibiotic MIC, Erythromycin (MDREC 1229; [6]): 1 µg/mL
- Antibiotic MIC, Linezolid (MDREC 1229; [6]): 8 µg/mL
- Antibiotic MIC, Vancomycin (MDREC 1229; [6]): 8 µg/mL
- Antibiotic MIC, Erythromycin (MDREC 1229; [7]): 0.5 µg/mL
- Antibiotic MIC, Linezolid (MDREC 1229; [7]): 4 µg/mL
- Antibiotic MIC, Vancomycin (MDREC 1229; [7]): 4 µg/mL
- Antibiotic MIC, Erythromycin (MDREC 1229; [8]): 0 µg/mL
- Antibiotic MIC, Linezolid (MDREC 1229; [8]): 0 µg/mL
- Antibiotic MIC, Vancomycin (MDREC 1229; [8]): 0 µg/mL
- Minimal inhibitory concentration MIC (MRSA 3114): >128 µg/mL
- Minimal inhibitory concentration MIC (MRSA 3126): >128 µg/mL
- Minimal inhibitory concentration MIC (MDREC 1238): 64 µg/mL (≈ 27.4 µM)
- Erythromycin MIC during combined treatment with peptide (MDRAB 12035; [1]): 32 µg/mL
- Linezolid MIC during combined treatment with peptide (MDRAB 12035; [1]): >128 µg/mL
- Vancomycin MIC during combined treatment with peptide (MDRAB 12035; [1]): >128 µg/mL
- Erythromycin MIC during combined treatment with peptide (MDRAB 12035; [2]): 32 µg/mL
- Linezolid MIC during combined treatment with peptide (MDRAB 12035; [2]): >128 µg/mL
- Vancomycin MIC during combined treatment with peptide (MDRAB 12035; [2]): >128 µg/mL
- Erythromycin MIC during combined treatment with peptide (MDRAB 12035; [3]): 16 µg/mL
- Linezolid MIC during combined treatment with peptide (MDRAB 12035; [3]): 128 µg/mL
- Vancomycin MIC during combined treatment with peptide (MDRAB 12035; [3]): 64 µg/mL
- Erythromycin MIC during combined treatment with peptide (MDRAB 12035; [4]): 4 µg/mL
- Linezolid MIC during combined treatment with peptide (MDRAB 12035; [4]): 32 µg/mL
- Vancomycin MIC during combined treatment with peptide (MDRAB 12035; [4]): 32 µg/mL
- Erythromycin MIC during combined treatment with peptide (MDRAB 12035; [5]): 1 µg/mL
- Linezolid MIC during combined treatment with peptide (MDRAB 12035; [5]): 16 µg/mL
- Vancomycin MIC during combined treatment with peptide (MDRAB 12035; [5]): 16 µg/mL
- Erythromycin MIC during combined treatment with peptide (MDRAB 12035; [6]): 0.25 µg/mL
- Linezolid MIC during combined treatment with peptide (MDRAB 12035; [6]): 8 µg/mL
- Vancomycin MIC during combined treatment with peptide (MDRAB 12035; [6]): 8 µg/mL
- Erythromycin MIC during combined treatment with peptide (MDRAB 12035; [7]): 0 µg/mL
- Linezolid MIC during combined treatment with peptide (MDRAB 12035; [7]): 0 µg/mL
- Vancomycin MIC during combined treatment with peptide (MDRAB 12035; [7]): 0 µg/mL
- Erythromycin MIC during combined treatment with peptide (MDRAB 12035; [8]): 0 µg/mL
- Linezolid MIC during combined treatment with peptide (MDRAB 12035; [8]): 0 µg/mL
- Vancomycin MIC during combined treatment with peptide (MDRAB 12035; [8]): 0 µg/mL
- Minimal inhibitory concentration MIC (S. typhimurium): 64 µg/mL (≈ 27.4 µM)
- Minimal inhibitory concentration MIC (MDRST 8007): 64 µg/mL (≈ 27.4 µM)

Reference: US11214594B2, “Antimicrobial peptide having synergistic antibacterial effect with antibiotics on multidrug resistant bacteria, and use thereof” (priority 2016, dated 2022)
